Reference: patent publication US12274689B2, “Compound for the management of feline diabetes” (INCREVET, INC., priority 2019, dated 2025)
Marks after values point to notes of the source that are not given here.

Columns and labels:
ZDF rats = experiment: plasma glucose in male Zucker Diabetic Fatty rats, daily oral dosing (study 338); type: in vivo; conditions: for plasma glucose levels / plasma glucose levels, Day 21 Δ: male ZDF rats; for plasma glucose levels, Day 21 Δ: change Day 0 to Day 21
db/db mice = experiment: non-fasting blood glucose in db/db mice, 28-day oral dosing (study 350); type: in vivo; conditions: for non-fasting blood glucose concentration: n = 8

## OC[C@H]1O[C@@H](c2ccc(Cl)c(Cc3ccc(OCCOC4CC4)cc3)c2)[C@H](O)[C@@H](O)[C@@H]1O [bexagliflozin, (2S,3R,4R,5S,6R)-2-(4-chloro-3-(4-(2-cyclopropoxyethoxy)benzyl)phenyl)-6-(hydroxymethyl)tetrahydro-2H-pyran-3,4,5-triol]
ZDF rats; ZDF rats, after 7 days, 0.067 mg kg^−1
  change in plasma glucose levels: +2.8%
ZDF rats; ZDF rats, after 7 days, 0.2 mg kg^−1
  change in plasma glucose levels: −16.8%
ZDF rats; ZDF rats, after 7 days, 0.67 mg kg^−1
  change in plasma glucose levels: −17.1%
ZDF rats; ZDF rats, after 7 days, 2.0 mg kg^−1
  change in plasma glucose levels: −25.3%
ZDF rats; ZDF rats, after 14 days, 0.067 mg kg^−1
  change in plasma glucose levels: +9.5%
ZDF rats; ZDF rats, after 14 days, 0.2 mg kg^−1
  change in plasma glucose levels: −5.6%
ZDF rats; ZDF rats, after 14 days, 0.67 mg kg^−1
  change in plasma glucose levels: −8.1%
ZDF rats; ZDF rats, after 14 days, 2.0 mg kg^−1
  change in plasma glucose levels: −25.1%
ZDF rats; ZDF rats, after 21 days, 0.067 mg kg^−1
  change in plasma glucose levels: +15.5%
ZDF rats; ZDF rats, after 21 days, 0.2 mg kg^−1
  change in plasma glucose levels: +4.3%
ZDF rats; ZDF rats, after 21 days, 0.67 mg kg^−1
  change in plasma glucose levels: +1.5%
ZDF rats; ZDF rats, after 21 days, 2.0 mg kg^−1
  change in plasma glucose levels: −15.4%
ZDF rats; ZDF rats, sole agent, any dose group
  blood glucose, level below which it was not reduced: ≥ 287 mg/dL
ZDF rats; 0.067 mg kg^−1 oral once daily, Day 0
  plasma glucose levels: 373.2 ± 29.5 mg/dL
ZDF rats; 0.067 mg kg^−1 oral once daily, Day 7
  plasma glucose levels: 383.7 ± 33.1 mg/dL
ZDF rats; 0.067 mg kg^−1 oral once daily, Day 14
  plasma glucose levels: 408.6 ± 19.6 mg/dL
ZDF rats; 0.067 mg kg^−1 oral once daily, Day 21
  plasma glucose levels: 431.0 ± 19.7 mg/dL
ZDF rats; 0.067 mg kg^−1 oral once daily
  plasma glucose levels, Day 21 Δ: +57.8 ± 41.7 mg dL^−1
ZDF rats; 0.2 mg kg^−1 oral once daily, Day 0
  plasma glucose levels: 386.6 ± 28.2 mg/dL
ZDF rats; 0.2 mg kg^−1 oral once daily, Day 7
  plasma glucose levels: 321.8 ± 19.5 mg/dL
ZDF rats; 0.2 mg kg^−1 oral once daily, Day 14
  plasma glucose levels: 364.9 ± 13.1 mg/dL
ZDF rats; 0.2 mg kg^−1 oral once daily, Day 21
  plasma glucose levels: 403.2 ± 20.1 mg/dL
ZDF rats; 0.2 mg kg^−1 oral once daily
  plasma glucose levels, Day 21 Δ: +16.6 ± 36.6 mg dL^−1
ZDF rats; 0.67 mg kg^−1 oral once daily, Day 0, n = 10
  plasma glucose levels: 384.4 ± 27.5 mg/dL
ZDF rats; 0.67 mg kg^−1 oral once daily, Day 7
  plasma glucose levels: 318.7 ± 32.0 mg/dL
ZDF rats; 0.67 mg kg^−1 oral once daily, Day 14
  plasma glucose levels: 353.4 ± 18.9 mg/dL
ZDF rats; 0.67 mg kg^−1 oral once daily, Day 21, n = 9
  plasma glucose levels: 374.2 ± 37.3 mg/dL
ZDF rats; 0.67 mg kg^−1 oral once daily, n = 9
  plasma glucose levels, Day 21 Δ: +5.4 ± 30.8^b mg dL^−1
ZDF rats; 2 mg kg^−1 oral once daily, Day 0
  plasma glucose levels: 384.8 ± 16.5 mg/dL
ZDF rats; 2 mg kg^−1 oral once daily, Day 7
  plasma glucose levels: 287.4 ± 27.4 mg/dL
ZDF rats; 2 mg kg^−1 oral once daily, Day 14
  plasma glucose levels: 288.3 ± 17.1 mg/dL
ZDF rats; 2 mg kg^−1 oral once daily, Day 21
  plasma glucose levels: 325.4 ± 13.0 mg/dL
ZDF rats; 2 mg kg^−1 oral once daily
  plasma glucose levels, Day 21 Δ: -59.4 ± 22.4 mg/dL
db/db mice; 0.067 mg kg^−1 oral once a day, Day 0, mean ± SD
  non-fasting blood glucose concentration: 565.5 ± 75.9 mg/dL
db/db mice; 0.067 mg kg^−1 oral once a day, Day 1, 6 h post-dose, mean ± SD
  non-fasting blood glucose concentration: 526.0 ± 97.0 mg/dL
db/db mice; 0.067 mg kg^−1 oral once a day, Day 7, 6 h post-dose, mean ± SD
  non-fasting blood glucose concentration: 459.5 ± 69.9 mg/dL
db/db mice; 0.067 mg kg^−1 oral once a day, Day 14, 6 h post-dose, mean ± SD
  non-fasting blood glucose concentration: 441.7 ± 119.6 mg/dL
db/db mice; 0.067 mg kg^−1 oral once a day, Day 21, 6 h post-dose, mean ± SD
  non-fasting blood glucose concentration: 497.5 ± 98.8 mg/dL
db/db mice; 0.067 mg kg^−1 oral once a day, Day 28, 6 h post-dose, mean ± SD
  non-fasting blood glucose concentration: 472.1 ± 113.3 mg/dL
db/db mice; 0.067 mg kg^−1 oral once a day, Day −3, mean ± SD
  non-fasting blood glucose concentration: 563.6 ± 105.2 mg/dL
db/db mice; 0.2 mg kg^−1 oral once a day, Day 0, mean ± SD
  non-fasting blood glucose concentration: 590.0 ± 92.9 mg/dL
db/db mice; 0.2 mg kg^−1 oral once a day, Day 1, 6 h post-dose, mean ± SD
  non-fasting blood glucose concentration: 411.3 ± 86.8 mg/dL
db/db mice; 0.2 mg kg^−1 oral once a day, Day 7, 6 h post-dose, mean ± SD
  non-fasting blood glucose concentration: 390.8 ± 92.3 mg/dL
db/db mice; 0.2 mg kg^−1 oral once a day, Day 14, 6 h post-dose, mean ± SD
  non-fasting blood glucose concentration: 364.7 ± 121.6 mg/dL
db/db mice; 0.2 mg kg^−1 oral once a day, Day 21, 6 h post-dose, mean ± SD
  non-fasting blood glucose concentration: 379.8 ± 47.4 mg/dL
db/db mice; 0.2 mg kg^−1 oral once a day, Day 28, 6 h post-dose, mean ± SD
  non-fasting blood glucose concentration: 333.5 ± 79.9 mg/dL
db/db mice; 0.2 mg kg^−1 oral once a day, Day −3, mean ± SD
  non-fasting blood glucose concentration: 546.9 ± 92.8 mg/dL
db/db mice; 0.67 mg kg^−1 oral once a day, Day 0, mean ± SD
  non-fasting blood glucose concentration: 574.4 ± 90.5 mg/dL
db/db mice; 0.67 mg kg^−1 oral once a day, Day 1, 6 h post-dose, mean ± SD
  non-fasting blood glucose concentration: 404.3 ± 86.4 mg/dL
db/db mice; 0.67 mg kg^−1 oral once a day, Day 7, 6 h post-dose, mean ± SD
  non-fasting blood glucose concentration: 370.1 ± 96.5 mg/dL
db/db mice; 0.67 mg kg^−1 oral once a day, Day 14, 6 h post-dose, mean ± SD
  non-fasting blood glucose concentration: 379.6 ± 58.6 mg/dL
db/db mice; 0.67 mg kg^−1 oral once a day, Day 21, 6 h post-dose, mean ± SD
  non-fasting blood glucose concentration: 300.6 ± 97.6 mg/dL
db/db mice; 0.67 mg kg^−1 oral once a day, Day 28, 6 h post-dose, mean ± SD
  non-fasting blood glucose concentration: 306.7 ± 98.4 mg/dL
db/db mice; 0.67 mg kg^−1 oral once a day, Day −3, mean ± SD
  non-fasting blood glucose concentration: 565.5 ± 87.5 mg/dL
db/db mice; 2 mg kg^−1 oral once a day, Day 0, mean ± SD
  non-fasting blood glucose concentration: 541.6 ± 84.4 mg/dL
db/db mice; 2 mg kg^−1 oral once a day, Day 1, 6 h post-dose, mean ± SD
  non-fasting blood glucose concentration: 382.7 ± 111.9 mg/dL
db/db mice; 2 mg kg^−1 oral once a day, Day 7, 6 h post-dose, mean ± SD
  non-fasting blood glucose concentration: 330.8 ± 101.1 mg/dL
db/db mice; 2 mg kg^−1 oral once a day, Day 14, 6 h post-dose, mean ± SD
  non-fasting blood glucose concentration: 303.5 ± 74.0 mg/dL
db/db mice; 2 mg kg^−1 oral once a day, Day 21, 6 h post-dose, mean ± SD
  non-fasting blood glucose concentration: 319.7 ± 74.2 mg/dL
db/db mice; 2 mg kg^−1 oral once a day, Day 28, 6 h post-dose, mean ± SD
  non-fasting blood glucose concentration: 315.2 ± 81.3 mg/dL
db/db mice; 2 mg kg^−1 oral once a day, Day −3, mean ± SD
  non-fasting blood glucose concentration: 603.9 ± 88.9 mg/dL
db/db mice; 28-day administration of 0.067 mg kg^−1
  blood glucose values, % of control: 79.74%
db/db mice; 28-day administration of 0.2 mg kg^−1
  blood glucose values, % of control: 56.33%
db/db mice; 28-day administration of 0.67 mg kg^−1
  blood glucose values, % of control: 51.81%
db/db mice; 28-day administration of 2 mg kg^−1
  blood glucose values, % of control: 53.25%
db/db mice; sole agent, any dose group
  blood glucose, level below which it was not reduced: ≥ 300 mg/dL
